Each structure is given as a SMILES string.

Assay [1] has as its system etiolated Col-0 seedlings. Kind of assay: Measurement of ethylene production by GC-MS. Particulars: 3-days-old etiolated Col-0 seedlings, 10 μM. Type of assay: in vivo, Arabidopsis thaliana. The protocol: Measurement of ethylene production. […] These vials were incubated at 22° C. for 3 days under dark environment. 500-1000 μL sample of the headspace gas was sampled with an autosampler (TriPlus RSH, Thermo Scientific) and injected into a gas chromatograph (Trace 1310 GC, Thermo Scientific) that was equipped with a HP-PLOTQ column ([…], 320 μm, 20 μm) and a mass spectrometer (TSQ8000 Evo MS, Thermo Scientific), scanning from 25-27.5 m/z. Separations were carried out at 35° C. using He as the carrier gas. The area of the ethylene peak (RT: 4 min) was integrated using Thermo Xcalibur Qual Browser. A calibration curve was generated by varying the injection volume (100 μL, 250 μL, 500 μL, and 1000 μL) of a 10 ppm ethylene standard (in nitrogen), and sample results are expressed as concentrations calculated from linear regression of calibration samples.

For assay [2], the system named is EIN3. Kind of assay: 35S-EIN3-GFP protein level in ein3eil1 background. It is filed as in vivo, Arabidopsis thaliana. As to conditions: 2 hours, 10 μM MBZ or 50 μM ACC. An excerpt:
(§1) LaserMicroscopy. A Zeiss 710 confocal microscope with 20×, 40×, and 63× objectives were used to detect GFP and propidium iodide (PI) fluorescence. A Keyence BZ-X810 microscope with a 20× objective was used to detect bright field images and GFP fluorescence in FIG. 3B, FIG. 8B right panel, FIG. 9C, FIG. 9F.

The subject of assay [3] is Arabidopsis thaliana roots.
In assay [4] the test system is Ethylene Response Factor1 (ERF1). Kind of assay: Expression of ethylene response marker gene ERF1. It is filed as in vivo, Arabidopsis thaliana. As to conditions: root tissue, 2 hours, 10 μM MBZ or ACC (50 μM per legend).
The test system of assay [5] is etiolated Arabidopsis seedlings. Kind of assay: Triple response of etiolated seedlings. It is filed as in vivo, Arabidopsis thaliana. As to conditions: 4-days-old etiolated etr1-3 seedlings, 2.5 μM MBZ or 10 μM ACC.
Assay [6] has as its system root cells of etiolated seedlings. Kind of assay: Root cell size by confocal microscopy (PI staining). It is filed as in vivo, Arabidopsis thaliana. Particulars: 4-day-old etiolated seedlings, 2.5 μM MBZ or 10 μM ACC.
Excerpt: as §1

Assay [7] deals with microtubules (TUB6-GFP). Kind of assay: Microtubule orientation in root tips of TUB6-GFP seedlings. Type of assay: in vivo, Arabidopsis thaliana. Particulars: 1 μM IAA or 50 μM MBZ.
Excerpt: as §1

The subject of assay [8] is Arabidopsis roots. Particulars: 4 hours of ethylene treatment; cited from earlier work.
The mark [9] stands for this setting: 8-day-old seedlings, 1 μM MBZ or 10 nM IAA plates.

With `NC1(C(=O)O)CC1` [ACC, 1-aminocy-clopropane-1-carboxylic acid], in assay [1], the ethylene production result is on record as “dramatically induced”. In addition, the 35S-EIN3-GFP protein level entry in assay [2] was “dramatically induced”. Also, the “effect on root angle” value in assay [3] (ACC at certain concentrations (0.1-10 μM range)) is given as “weak but distinct effect”. Further, the “transcript level of ERF” value in assay [4] is “strongly induced”. Also, the “triple response in etr1-3” value in assay [5] is listed as “completely insensitive”. Besides, in assay [6], the mature cell size result is “reduced”.
As to `O=C(O)Cc1c[nH]c2ccccc12` [IAA], the “orientation of tubulin in roots within 1 h” value in assay [7] is reported as “significantly changed”. In addition, in assay [3] (setting [9]), the root elongation entry was “inhibited” and the root hair growth entry is on record as “enhanced”.
On to `C=C` [ethylene], for which, in assay [8], the “number of DEGs upon ethylene treatment (published data)” value was 1397 genes.

The values are drawn from patent publication US20250049032A1, “ETHYLENE SIGNALING ACTIVATOR MODULATES ROOT SYSTEM ARCHITECTURE” (Salk Institute for Biological Studies, priority 2021, published 2025).
